In patent US11077109B2, “Compounds having antibacterial activity and methods of use” (The Trustees of Princeton University, priority 2017, dated 2021):
≈ marks a conversion by molar mass, not a printed value. Where a name gives a salt, the structure may show the parent alone.

Assays:
[1] = tested on: E. coli MC4100 imp4213 (imp) strain; assay: MIC of lead compounds on the imp strain, microdilution method in 96-well plates; assay type: cell-based
Text: With the aim of finding antibiotics with novel MOAs, an unbiased whole-cell screening approach was applied. To include antibiotics that target either gram-negative and gram-positive bacteria, compounds were screened that inhibited growth of the E. coli MC4100 imp4213 (imp) strain, which has a compromised OM that makes it permeable to antibiotics that would otherwise not penetrate the gram-negative lipolysaccheride (LPS). […] unique compounds spanning 5 libraries were screened, with 32,343 compounds represented once, 923 duplicates, 114 triplicates, 12 quadruplicates and 2 compounds represented five times, all at the concentration of 50 uM in DMSO.
From the 186 unique hits, 32 lead compounds were selected that either had not been identified as antibiotics or had unknown or ambiguous MOAs for further investigation. To understand the potency of these compounds, their minimum inhibitory concentration (MIC) was measured on the imp strain using the microdilution method in 96-well plates.

[2] = tested on: Cpx envelope stress response (cpxP); assay: cpxP expression (Cpx envelope stress response activation); assay type: cell-based, E. coli MC4100 wild type; details: drug at one to one-half the MIC (AGAs and chloramphenicol 5 μg/ml, triflupromazine 50 μg/ml)
Text: Thus, that the three AGAs fell into a distinct neighborhood not similar to the other ribosome-targeting antibiotics was unsurprising.

[3] = tested on: B. subtilis essential gene knockdown library (folC, folA); assay type: cell-based
Text: The classical method of identifying the molecular target of an antibiotic is by selecting for antibiotic resistant mutants. However, SCH resistant mutants were not easily identified. A potential reason for this may be that SCH has multiple targets. To probe this hypothesis, a B. subtilis essential gene knockdown library was screened to select for strains that were sensitized to SCH (FIG. 12A). This library consists of ˜300 individual strains where the expression of each essential gene is repressed 3-fold by CRISPR interference (CRISPRi). This library was pinned onto agar plates containing a sub-MIC dose of SCH and the relative fitness of each gene was measured (FIG. 12A). […]

[4] = tested on: folate metabolites in NCM 3722 E. coli cells; assay: Metabolomics and mass spectrometry of folate metabolites; assay type: cell-based
ΔthyA lptD4213 cells = assay: Susceptibility of ΔthyA cells; assay type: cell-based, E. coli; details: supplemented with exogenous Thymine
Procedure: To test this hypothesis, the membrane potential and membrane permeability of lptD4213 cells were measured using the fluorescent dyes, DIOC2(3) and TO-PRO-3, and flow cytometry. DIOC2(3) is a cationic dye that accumulates in the cytoplasm of cells with an active membrane potential and shifts its fluorescence from red to green. The dye also stains the membrane of the cells in green and as a result the ratio of the red to green signals can provide a morphology and size independent measure of membrane potential (FIG. 14B). TO-PRO-3 is a nucleic acid stain that only stains cells with compromised membranes (FIG. 14B).

[5] = tested on: Neisseria gonorrhoeae CCUG57598; assay: MIC against panel of clinically important pathogens: N. gonorrhoeae; assay type: cell-based; details: read-out: MIC (inhibiting concentration), N. gonorrhoeae
Procedure: (§1) In an effort to understand how effective these 8, possibly novel, antibiotics might be in treating infections, their MICs against a panel of 22 clinically important pathogens shown in Table II were measured. In addition, the MICs of 3 other compounds of interest, rivaroxaban, AZT, and triflupromazine, were measured which were associated with specific drug classes. Of particular interest, ONO-RS-82 inhibited C. difficile and N. gonorrhoeae with at concentrations of 2 μg/ml and 0.25 μg/ml respectively.

[6] = tested on: Enterococcus faecium ATCC BAA-2320; assay: MIC against panel of clinically important pathogens: E. faecium; assay type: cell-based; details: ATCCBAA2320, read-out: MIC (inhibiting concentration), E. faecium
Procedure: as §1

[7] = tested on: methicillin resistant S. aureus (NARSA NRS384); assay: MIC against panel of clinically important pathogens: methicillin resistant S. aureus; assay type: cell-based; details: Staphylococcus aureus, read-out: MIC (inhibiting concentration), methicillin resistant S. aureus
Procedure: as §1

[8] = tested on: Clostridium difficile ATCC BAA-1875; assay: MIC against panel of clinically important pathogens: C. difficile; assay type: cell-based; details: Clostridioides difficile, ATCCBAA1875, read-out: MIC (inhibiting concentration), C. difficile
Procedure: as §1

NCM 3722 E. coli cells = assay: MIC on NCM 3722 E. coli; assay type: cell-based; details: NCM 3722 cells, Gutnick Minimal Media
[9] = E. coli MC4100 imp4213 (imp) strain, microdilution

## Oc1ccc(Cl)cc1Cc1cc(Cl)ccc1O [Dichlorophen]
[1]; Escherichia coli
  MIC: 12.5 µM

## CC(=O)OC[C@H]1O[C@@H]([S-])[C@H](OC(C)=O)[C@@H](OC(C)=O)[C@@H]1OC(C)=O.CCP(CC)CC.[Au+] [Auranofin]
[1]; [9]
  MIC: 6.25 µM

## O=c1[nH]c(=O)n([C@H]2C[C@H](O)[C@@H](CO)O2)cc1F [Floxuridine]
[1]; Escherichia coli
  MIC: 6.25 µM

## CCCCCCCCCCCCCCC[C@H](O)[C@H](N)CO (racemic) [DL-erythro-dihydrosphingosine]
[1]; [9]
  MIC: 12.5 µM

## O=[N+]([O-])C(Br)(CO)CO [Bronopol]
[1]; Escherichia coli
  MIC: 25 µM

## gentamicin
[2]
  cpxP expression: induced cpxP expression

## COc1cccc(C2(O)CCCCC2CN(C)C)c1 (stereo not shown) [Tramadol hydrochloride]
[1]; Escherichia coli
  MIC: 6.25 µM

## CC(=O)[C@]1(O)Cc2c(O)c3c(c(O)c2[C@@H](O[C@H]2C[C@H](N)[C@H](O)[C@H](C)O2)C1)C(=O)c1ccccc1C3=O [Idarubicin]
[1]; Escherichia coli
  MIC: 25 µM

## CCCCC(CC)CNC(=N)NC(=N)NCCCCCCNC(=N)NC(=N)NCC(CC)CCCC (stereo not shown) [Alexidine hydrochloride]
[1]; Escherichia coli
  MIC: 12.5 µM

## O=C(N[C@H](CO)[C@H](O)c1ccc([N+](=O)[O-])cc1)C(Cl)Cl [chloramphenicol]
[2]
  cpxP expression: did not

## CC[n+]1c(-c2ccccc2)c2cc(N)ccc2c2ccc(N)cc21 [Homidium bromide]
[1]; Escherichia coli
  MIC: 25 µM

## COc1cc(Cc2cnc(N)nc2N)cc(OC)c1OC [Trimethoprim]
[3]; sub-MIC / sub-lethal dose
  sensitivity of dihydrofolate reductase (folA) knockdown: sensitized
[3]; sub-MIC / sub-lethal dose on agar, confirmed in liquid
  sensitivity of dihydrofolate synthetase (folC) knockdown: sensitized
[4]; NCM 3722 cells
  metabolic response characteristic of FolA inhibition: also observed
ΔthyA lptD4213 cells
  susceptibility of ΔthyA lptD4213 cells: resistant to high levels

## Bleomycin
[1]; [9]
  MIC: 0.1 µM

## O=C1Nc2ccc(I)cc2C1=Cc1cc(Br)c(O)c(Br)c1 [GW5074, 3-(3,5-dibromo-4-hydroxybenzyliden)-5-iodo-1,3-dihydroindol-2-one]
[1]; Escherichia coli
  MIC: 6.25 µM

## CN[C@@H]1[C@@H](O[C@H]2O[C@H](CO)[C@@H](N)[C@H](O)[C@H]2O)OC2C[C@@H](N)[C@@H](O[C@H]3[C@H](O)[C@@H](O)[C@H](N)C[C@@H]3N)OC2[C@@H]1O (stereo partly shown) [apramycin]
[2]
  cpxP expression: induced cpxP expression

## CC[n+]1c(C=CC=C2N(C)c3ccccc3C2(C)C)sc2ccccc21 [AC-93253 iodide, 2-[3-(1,3-dihydro-1,3,3-trimethyl-2H-indol-2-ylidene)-1-propenyl]-3-ethyl-benzothiazolium iodide]
[1]; Escherichia coli
  MIC: 6.25 µM

## O=C(NC[C@H]1CN(c2ccc(N3CCOCC3=O)cc2)C(=O)O1)c1ccc(Cl)s1 [Rivaroxaban, (S)-5-Chloro-N-((2-oxo-3-(4-(3-oxomorpholino)phenyl)oxazolidin-5-yl)methyl)thiophene-2-carboxamide]
[1]; Escherichia coli
  MIC: 0.05 µM

## Cc1nc2ccccc2n1Cc1ccc(Cl)cc1 [Chlormidazole]
[1]; Escherichia coli
  MIC: 25 µM

## CN(C)CCCN1c2ccccc2Sc2ccc(C(F)(F)F)cc21 [Triflupromazine, N,N-dimethyl-3-[2-(trifluoromethyl)phenothiazin-10-yl]propan-1-amine]
[1]; Escherichia coli
  MIC: 25 µM
[2]
  cpxP expression: induced cpxP expression

## O=S(=O)(NCCNCC=Cc1ccc(Br)cc1)c1cccc2cnccc12 [H 89 dihydrochloride, N-[2-(p-Bromocinnamylamino)ethyl]-5-isoquinolinesulfonamide dihydrochloride]
[1]; Escherichia coli
  MIC: 12.5 µM

## Clc1ccc(C(c2ccc(Cl)cc2)n2cc[n+](CC(OCc3ccc(Cl)cc3Cl)c3ccc(Cl)cc3Cl)c2)cc1.[Cl-] (stereo not shown) [Calmidazolium chloride, 1-[bis(4-Chlorophenyl)methyl]-3-[2-(2,4-dichlorophenyl)-2-(2,4-dichlorobenzyloxy)ethyl]-1H-imidazolium chloride]
[1]; Escherichia coli
  MIC: 3.12 µM
[5]
  MIC: < 1 µg/mL
[6]
  MIC: < 1 µg/mL
[7]
  MIC: < 1 µg/mL

## CCCCCc1ccc(C=CC(=O)Nc2cc(Cl)ccc2C(=O)O)cc1 [ONO-RS-082, 2-(p-amylcinnamoyl)amino-4-chlorobenzoic acid]
[1]; Escherichia coli
  MIC: 3.12 µM
[8]
  MIC: 2 µg/mL (≈ 5.38 µM)
[5]
  MIC: 0.25 µg/mL (≈ 0.672 µM)

## CC(C)c1ccc(Cn2ccc3c4c(N)nc(NC5CC5)nc4ccc32)cc1 [SCH 79797, N3-Cyclopropyl-7-[[4-(1-methylethyl)phenyl]methyl]-7H-pyrrolo[3,2-F]quinazoline-1,3-diamine dihydrochloride]
[1]; Escherichia coli
  MIC: 25 µM
NCM 3722 E. coli cells
  MIC (1× MIC): 31.25 µM
[4]; 1× MIC for 15 minutes
  dihydrofolate (DHF) levels versus normal DHF levels: approximately 10 fold
